Consider two compounds from patent US20040121965A1, “Method of treating resistant tumors” (Wyeth Holdings Corporation, priority 2002, published 2004).

The test system of one assay is HL60/AR (MRP1). The assay can be described thus: Cell survival assay, HL60/AR (MRP1). Particulars: for IC50: Homo sapiens, HL-60/AR, read-out: HL60/AR (MRP1) IC50, nM (N). The text has this:
Cells lines with previously known mechanisms of resistance. […] Res. 8: 207-218,1996); KB-3-1 (parental derived from an epidermoid carcinoma), KB-8.5, KB-V1 (Akiyama S-I, Fojo A, Hanover J A, Pastan I, Gottesman M M. Isolation and genetic characterization of human KB cell lines resistant to multiple drugs. Somatic Cell Mol. Gen., 11: 117-126,1985; Shen D-W, Cardarelli C, Hwang J, Cornwell M, Richert N, Ishii S, Pastan I, Gottesman MM. […] J. Biol. Chem., 261: 7762-7770, 1986); and HL-60 (parental derived from human leukemia) and HL60/AR (McGrath T., Center M. S. Adriamycin resistance in HL60 cells in the absence of detectable P-glycoprotein. Biochem. Res. Commun., 145:1171-1176,1987); A549 and A549.EpoB40 (He L., Yang C.-P.H., Horwitz S. B. Mutations in p-tubulin map to domains involved in regulation of microtubule stability in epothilone-resistant cell lines. Molecular Cancer Therapeutics. 1: 3-10, 2001). HCT-15 human colon carcinoma and DLD-1 human colon carcinoma are obtained from American Tissue Culture Collection. The MX-1W carcinoma is a Wyeth variant orginally obtained as MX-1 breast carcinoma from the National Cancer Institute. Cell lines selected for resistance to Representative Example 129. KB-3-1 cells are selected for resistance to Example 129 by chronically exposing cells to increasing concentrations of Example 129.
2.2. Cell Survival Assay: Standard Pharmacological Test Procedure. The concentration of candidate inhibitor required to inhibit 50% of cell growth (IC50) is done according to previously reported methods. […] Compounds are serially diluted into media as 2× stocks and 100 μl added to cells in duplicate. Compounds are incubated with cells for 3 days. At the end of the incubation period the sulforhodamine B (SRB) assay, which measures protein content as an assessment of cell survival, is performed as described previously (Skehan P, Storeng R, Scudiero D, Monks A, McMahon J, Vistica D, Warren J T, Bokesch H, Kenney S, Boyd MR. New calorimetric cytotoxicity assay for anticancer-drug screening. J Natl Cancer Inst 1990 Jul 4;82(13):1107-12) with some modification as follows. For KB-3-1 cells with 20% FCS, media is gently decanted and replaced with 200 μl of serum-free media mixed with cold 50% TCA for a final concentration of 10% TCA. The plates are incubated for 1 hr at 4° C., followed by washing 5 times in cold distilled water, then air dried overnight. The fixed cells are stained for 10 min with 80 μl of 0.04% SRB solution prepared in 1% glacial acetic acid. Stain is discarded and plates washed 5 times in 1% glacial acetic acid, then air-dried until completely dry. Stained cell product is dissolved in 150 μl of 10 mM Trizma Base and placed on a shaker for 20 minutes until fully dissolved. Absorbance is read on a Victor V multi-label plate reader (Perkin Elmer, Gaithersburg, Md.).
J. Cell Science,113: 2011-2021, 2000). It was unknown whether the hemiasterlin family of peptides interact with these drug pumps.

For another assay, the system named is HCT-15 tumor. Description: Growth of tumors in nude mice, HCT-15 xenograft. Particulars: paclitaxel 60 mg/kg IV, days 1,5,9. The assay is classed as in vivo. The text has this:
(§1) 2.4. Growth of Tumors in Nude Mice.

The subject of the next assay is MX-1W tumor. The assay can be described thus: Growth of tumors in nude mice, MX-1W xenograft. It counts as in vivo. Particulars: for % T/C on day 7 / % T/C on day 14: MX-1W, days 1,5,9; for Activity in nude mice animal model (% T/C @ MTD on days 11-15) MX-1W: staged MX-1W xenograft, at MTD.
From the text: as §1

The subject of a further assay is NCI-H838. Description: Cell survival assay (SRB), NCI-H838. The assay is classed as cell-based. Particulars: Homo sapiens, 72 h; NCI-H838, NSCLC; 3 days, SRB staining. How it is done:
(§2) 2.2. Cell Survival Assay: Standard Pharmacological Test Procedure. […] Compounds are incubated with cells for 3 days.
A general note: Sulforhodamine B stains cellular protein and so reports cell mass.

Assay [1] can be described thus: Mitotic arrest and apoptosis. It counts as cell-based. Particulars: at 24 hr; followed by apoptosis (48 hr). How it is done:
d) induces mitotic arrest (3-10 nM at 24 hr) followed by apoptosis (48 hr),

For the next assay, the system named is cellular microtubules. Description: Cellular microtubules by immunofluorescence microscopy. The assay is classed as cell-based.
Another assay deals with MDA-MB-435. The assay can be described thus: Cell survival assay (SRB), MDA-MB-435. The assay is classed as cell-based. Particulars: Homo sapiens, 72 h; MDA-MB-435, breast; 3 days, SRB staining. How it is done: as §2
A further assay has as its system MAP-associated tubulin. The assay can be described thus: Polymerization of MAP-associated tubulin, cell-free spectrophotometric assay. It counts as biochemical.
The next assay relates to SKBR3. Description: Cell survival assay (SRB), SKBR3. The assay is classed as cell-based. Particulars: Homo sapiens, SK-BR-3, 72 h; SKBR3, breast; 3 days, SRB staining. How it is done:
as §2

The test system of another assay is DU145. Description: Cell survival assay (SRB), DU145. The assay is classed as cell-based. Particulars: Homo sapiens, DU-145, 72 h; DU145, prostate; 3 days, SRB staining. How it is done:
as §2

The subject of the next assay is MCF7. The assay can be described thus: Cell survival assay (SRB), MCF7. Particulars: Homo sapiens, MCF7, 72 h. The assay is classed as cell-based. How it is done: as §2
The subject of another assay is CX-1. The assay can be described thus: Cell survival assay (SRB), CX-1. It counts as cell-based. The settings on record: Homo sapiens, 72 h; CX-1, colon; 3 days, SRB staining. How it is done:
as §2

The structures appear in SMILES notation. Marks after values point to notes of the source that are not given here.

With `CC(=O)O[C@H]1C(=O)[C@@]2(C)[C@H]([C@H](OC(=O)c3ccccc3)[C@]3(O)C[C@H](OC(=O)[C@H](O)[C@@H](NC(=O)c4ccccc4)c4ccccc4)C(C)=C1C3(C)C)[C@]1(OC(C)=O)CO[C@@H]1C[C@@H]2O` [paclitaxel, reference compound], the IC50 with HL60/AR (MRP1) came to 5.2 nM. In addition, in the assay on HCT-15 tumor, the “% T/C on day 9” value came to 114%, the “% T/C on day 13” value stood at 106%, the “% T/C on day 17” value was 123% and the “% T/C on day 21” value is 110%. Moreover, in the assay with MX-1W tumor (paclitaxel 60 mg/kg IV), the “% T/C on day 7” value was 76% and the “% T/C on day 14” value is 77%. For the same compound, the “Activity in nude mice animal model (% T/C @ MTD on days 11-15) MX-1W” value in the assay with MX-1W tumor came to 73%. This compound came in with an IC50 in the assay with NCI-H838 of 6.3 ± 0.6 nM.

In the case of `CN[C@H](C(=O)N[C@H](C(=O)N(C)[C@H](/C=C(\C)C(=O)O)C(C)C)C(C)(C)C)C(C)(C)c1ccccc1` [Example 129, N,β,β-trimethyl-L-phenylalanyl-N^1-[(1S,2E)-3-carboxy-1-isopropylbut-2-enyl]-N^1,3-dimethyl-L-valinamide], the IC50 worked out at 0.245 ± 0.45 nM in the assay on HL60/AR (MRP1); 0.5 nM with MDA-MB-435; 2.3 nM in the assay on SKBR3; 2 nM with DU145; 7.3 ± 2.3 nM in the assay with MCF7; 2.3 nM in the assay on CX-1. Besides, the “RR, relative resistance” value with HL60/AR (MRP1) (IC50 HL60/AR / IC50 HL60) came to 1.2. For the same compound, in assay [1], the “concentration that induces mitotic arrest” value lay in the range of 3 to 10 nM. In addition, in the assay with cellular microtubules, the “effect on cellular microtubules” value is listed as “depolymerizes cellular microtubules”. For the same compound, in the assay on MX-1W tumor (Example 129 1.6 mg/kg IV), the “% T/C on day 7” value was 14** %. The “% T/C on day 14” value with MX-1W tumor (Example 129 1.6 mg/kg IV) is listed as 3** %. Also, in the assay on MX-1W tumor (orally administered), the “effect on growth of MX-1W tumor” value is given as “inhibited the growth”. The “Activity in nude mice animal model (% T/C @ MTD on days 11-15) MX-1W” value in the assay with MX-1W tumor was 6%. Further, in the assay on MAP-associated tubulin, the “polymerization of MAP-associated tubulin” value is “inhibitor of polymerization”.
